From article PMC9143054 (Journal of Personalized Medicine, 2022)
Where two headings read alike, the source gives them in different places.

Tests used:
[1] = Acetaminophen pharmacokinetics after 1 g intravenous infusion (serum LC-MS/MS, noncompartmental analysis); type: in vivo, human
Experimental: Serum samples were collected every 30 min starting from the administration until 6 h after the treatment was initiated and immediately frozen at −80 °C until analysis. […] The protocol also included the collection of whole blood samples for genetic analyses.
The samples were mixed for 15 s and kept on ice for 20 min. Then, the samples were centrifuged for 10 min at 3000× g, at 4 °C. The supernatant (750 μL) was evaporated under a nitrogen stream. Then, the samples were resuspended in 40 μL of a mixture containing water ([…]), methanol (2.5%), and formic acid (0.1%). […] The column temperature was set at 20 °C. The flow rate was 0.2 mL/min, and the mobile phase consisted of the following gradient: Mobile phase A: 0.1% formic acid in water; Mobile phase B: 0.1 formic acid in methanol. The elution was started with a proportion of 97.5% A:2.5% B. A linear gradient increase from 2.5% to 65%B over 0.6 min was used, and then, the mobile phase reversed to initial conditions. The mass spectrometer was operated in positive electrospray ionization using multiple reaction monitoring (MRM). The source was set at 500 °C and 5.5 kV. […] Pharmacokinetic analyses were carried out by use of WinNonlin® V5.3 (Pharsight Corporation, St. Louis, MO, USA). The pharmacokinetic model chosen to calculate all parameters was noncompartmental with intravenous infusion. Untransformed data were used for all analyses.

[2] = Adverse drug events attributable to acetaminophen in the study participants; type: in vivo, human; details: single 1 g iv dose, ICU patients
[3] = cited from earlier work
[4] = UGT1A6*2/*2 diplotype vs UGT1A6*1/*1
[5] = UGT1A6*2/*4 diplotype vs UGT1A6*1/*1
[6] = concomitant drug therapy: Other (Inhibitors + Inducers) (n = 1), single patient, 1 g iv
[7] = human, serum, concomitant drug therapy: Other (Inhibitors + Inducers) (n = 1), single patient, 1 g iv

CC(=O)Nc1ccc(O)cc1 [Acetaminophen]
effect of UGT1A9 genotypes (UGT1A9*1/*3, *3/*3) on pharmacokinetics ([1]; 65 individuals without UGT1A6 variants, Supplementary Table S5): No major differences
pharmacokinetics in individuals who required on-demand opiates vs those who did not ([1]; Supplementary Table S6): No significant differences
increase in drug exposure (AUMC) [1, 4]: 66%
increase in t1/2 values [1, 4]: 38%
increase in drug exposure (AUMC) [1, 5]: 76%
increase in t1/2 values [1, 5]: 31%
K10 [1, 6]: 0.45; - 1/h
V (volume of distribution) [1, 6]: 299.16; - mg/(ug/mL)
Vss [1, 6]: 299.16; - mg/(ug/mL)
increase in t1/2 values ([1]; homozygous or double heterozygous for variant UGT1A6 alleles vs UGT1A6*1/*1): 22.5%
half-life ([1]; human, serum, intravenous, 1 g, whole study group, from less than 0.5 h up to more than 3.5 h, read-out: half-life (t1/2) values, range across individuals): 0.5 to 3.5 h
AUC(0-inf) [1, 7]: 7440 ng·h/mL
AUC(0-t) [1, 7]: 6660 ng·h/mL
C0 [1, 7]: 3340 ng/mL
MRT [1, 7]: 2.23 h
half-life ([1]; human, serum, concomitant drug therapy: Other (Inhibitors + Inducers) (n = 1), single patient, 1 g iv, read-out: t1/2 (converted)): 1.54 h
adverse drug events attributable to acetaminophen [2]: None of the participants developed adverse drug events
fraction of acetaminophen metabolized in vivo [3]: about 90%
acetaminophen glucuronides as share of the metabolites recovered in urine ([3]; urine): about half
acetaminophen glucuronides as share of the urine metabolites ([3]; urine): more than 50%
